Measured values: patent publication US12491182B2, “Polymorphs of triazole antifungal compound PC945” (Pulmocide Limited, priority 2019, dated 2025)
“And” between values parts separate entries of the source, which are not always exact repeats. Identical values can stand only once. Like-named read-outs stand apart in the source and are kept apart here.

Legend:
[1] = Comparative pharmacokinetic profiling of Forms 1 and 2 by inhalation administration to rats; format: in vivo, male RccHan:WIST rat; settings: for Tmax: from start of exposure; for Drug Concentration in Animal by No. (plasma): individual animals; for AUCt dose normalised: AUCt of Form 2 normalised to dose achieved for Form 1 (2.48 mg/kg), 2.48 mg/kg; for time up to which plasma concentrations remained quantifiable: after the start of exposure (last sampling time)
Description: A study was undertaken to compare the time-course of unchanged drug concentrations in plasma following a single inhalation dose of either Form 1 or Form 2 in rats.
The male RccHan™:WIST rat was considered a suitable species and strain because of its acceptance by regulatory agencies. The inhalation route of administration was chosen to simulate the conditions of clinical administration. A total of 14 of animals (six animals per group with two spare animals), 10 to 12 weeks of age and weighing 306 to 341 g at the start of drug treatment, were used in the study. Treatment consisted of a single 2 hour inhalation exposure with a nebulised formulation of either micronised Form 1 (98.94% purity) to Group 1 animals or micronised Form 2 (98.10% purity) to Group 2 animals. The pharmacokinetic parameters of the two polymorphic forms were determined to support pharmacology and toxicology studies in animals and clinical studies in man.
Suspensions were manufactured by first preparing a concentrated solution of the surfactants (wetting solution) and a saline solution. These were then used to make the vehicle. A saline solution was prepared as follows. Sodium chloride (50 g) was weighed into a 5000 mL volumetric flask, made up to volume with water, stirred with a magnetic stirrer for 10 min and then passed through a 0.22 μm membrane filter. Wetting solution was prepared as follows. Lipoid S100 (10 g) was weighed into a 2000 mL Duran bottle, 1000 g of propylene glycol was added and the mixture was stirred on a Silverson mixer equipped with a 1″ high shear screen for 1 min at 8000 rpm and then passed through a 0.22 μm membrane filter. Vehicle was prepared as follows. The wetting solution (500 mL) was transferred into a 5000 mL volumetric flask, made to volume with saline solution, stirred with a magnetic stirrer for 10 min and then passed through a 0.22 μm membrane filter.
A 1000 mL batch of 4 mg/mL suspension of Compound I was prepared as follows. Compound I (4.00 g) was weighed into a small beaker, 100 mL of wetting solution was added and the mixture was stirred with a Silverson mixer equipped with a 1″ high shear screen for 5 min at 8000 rpm. The mixture was then transferred into a 5000 mL Duran bottle using saline solution and stirred using a Silverson mixer equipped with a 1″ high shear screen for 5 min at 8000 rpm, after which it was stored between 2 and 8° C. Higher or lower strength suspensions (range 0.2 to 20 mg/mL) were prepared by adjusting the input weight of API as appropriate for higher mg/mL suspensions or by further diluting with vehicle for lower mg/mL suspensions. All formulations were magnetically stirred for at least 30 min, and assessed visually prior to administration.
Rats were acclimatised to the inhalation dosing procedure for three consecutive days prior to dosing. Animals were treated with the test substance by aerosol inhalation administration for 120 min via snout only exposure, at a target aerosol concentration of 25.2 μg/L. The estimations of inhaled dose from an exposure duration of 2 hr and an assumed body weight of 300 g were calculated using the formula:
[formula] where: C is the aerosol concentration (μg/L); RMV is the respiratory minute volume (L/min); D is the duration of exposure (120 mins) and BW is the group mean body weight (kg). The mean achieved aerosol concentrations, estimated inhaled dose and particle size distribution (PSD) summary data are presented below. (Table 14).
Venous blood samples (0.3 mL) were taken from the tail vein of animals and samples collected after dosing (2 hr from the start of dose administration) and thereafter at times 3, 4, 6, 8, 12, 24, 28, 32, 36 and 48 hr following treatment. Samples were treated with K2EDTA anticoagulant, spun at 2000 g for 10 min at 4° C. and then stored frozen (−20° C.±10) whilst awaiting analysis. Plasma samples were subsequently analysed for Compound I by LGC using a validated LC-MS/MS method. […]

[2] = Thermo-gravimetric analysis (degradation onset); format: physicochemical
Procedure: TGA data were collected on a TA Instrument Q500 TGA, equipped with a 16 position auto-sampler. The instrument was temperature calibrated using certified Alumel and Nickel. Typically 5-10 mg of sample was loaded onto a pre-tared aluminium DSC pan and heated at 10° C./min from ambient temperature to 350° C. A nitrogen purge at 60 mL/min was maintained over the sample. The instrument control software was Advantage for Q Series v2.5.0.256 and Thermal Advantage v5.5.3 and the data were analysed using Universal Analysis v4.5A.
TGA profiling was carried out according to methods described above and was used to determine the amount of residual solvents associated with the polymorphs of Compound I. In addition, it was used to measure the quantity of solvent released on heating from the solvated forms of Compound I. Typical residual solvent levels found in samples of the polymorphs of Compound I are as follows.

[3] = male rats, inhalation, nominal 2.2 mg/kg, 3 hr from start of exposure
[4] = male rats, inhalation, nominal 2.2 mg/kg, 4 hr from start of exposure
[5] = male rats, inhalation, nominal 2.2 mg/kg, 6 hr from start of exposure
[6] = male rats, inhalation, nominal 2.2 mg/kg, 8 hr from start of exposure
[7] = male rats, inhalation, nominal 2.2 mg/kg, 8 hr, group mean
[8] = male rats, inhalation, nominal 2.2 mg/kg, 12 hr from start of exposure
[9] = male rats, inhalation, nominal 2.2 mg/kg, 24 hr from start of exposure
[10] = male rats, inhalation, nominal 2.2 mg/kg, 28 hr from start of exposure
[11] = male rats, inhalation, nominal 2.2 mg/kg, 32 hr from start of exposure
[12] = male rats, inhalation, nominal 2.2 mg/kg, 32 hr, group mean
[13] = male rats, inhalation, nominal 2.2 mg/kg, 36 hr from start of exposure
[14] = male rats, inhalation, nominal 2.2 mg/kg, 36 hr, group mean
[15] = male rats, inhalation, nominal 2.2 mg/kg, 48 hr from start of exposure
[16] = male rats, inhalation, nominal 2.2 mg/kg, IAD (immediately after dosing), group mean
[17] = male rats, inhalation, nominal 2.2 mg/kg, IAD (immediately after dosing)

SMILES	Drug Concentration in Animal by No. (plasma) [1, 3]	Drug Concentration in Animal by No. (plasma) [1, 4]	Drug Concentration in Animal by No. (plasma) [1, 5]	Drug Concentration in Animal by No. (plasma) [1, 6]	Drug Concentration Mean (plasma) [1, 7] [ng/mL]	Drug Concentration in Animal by No. (plasma) [1, 8]	Drug Concentration in Animal by No. (plasma) [1, 9]	Drug Concentration in Animal by No. (plasma) [1, 10]	Drug Concentration in Animal by No. (plasma) [1, 11]	Drug Concentration Mean (plasma) [1, 12] [ng/mL]	Drug Concentration in Animal by No. (plasma) [1, 13]	Drug Concentration Mean (plasma) [1, 14] [ng/mL]	Drug Concentration in Animal by No. (plasma) [1, 15]	Drug Concentration Mean (plasma) [1, 16] [ng/mL]	Drug Concentration in Animal by No. (plasma) [1, 17]	AUCt dose normalised ([1]; male rats, inhalation) [ng·h/mL]	time up to which plasma concentrations remained quantifiable ([1]; male rats, inhalation) [h]	also measured
Cc1cc(N2CCN(c3ccc(C(=O)Nc4ccc(F)cc4)cc3)CC2)ccc1OC[C@@H]1CO[C@@](Cn2cncn2)(c2ccc(F)cc2F)C1 [Form 1, 4-(4-(4-(((3R,5R)-5-((1H-1,2,4-triazol-1-yl)methyl)-5-(2,4-difluorophenyl)tetrahydrofuran-3-yl)methoxy)-3-methylphenyl)piperazin-1-yl)-N-(4-fluorophenyl)benzamide]	5.31 ng/mL and 4.35 ng/mL and 2.41 ng/mL	4.73 ng/mL and 6.32 ng/mL and 3.78 ng/mL	5.38 ng/mL and 3.97 ng/mL and 5.49 ng/mL	3.28 ng/mL and 2.88 ng/mL	3.08	4.05 ng/mL and 3.64 ng/mL	2.47 ng/mL and 3.00 ng/mL and 3.85 ng/mL and 2.75 ng/mL and 2.02 ng/mL and 3.03 ng/mL	1.85 ng/mL and 2.22 ng/mL and 3.92 ng/mL and 1.87 ng/mL and 2.04 ng/mL	1.36 ng/mL and 1.85 ng/mL and 2.79 ng/mL and 1.66 ng/mL and 2.20 ng/mL and 1.32 ng/mL	1.86	1.21 ng/mL and 1.36 ng/mL and 1.74 ng/mL and 1.70 ng/mL and 1.01 ng/mL and 1.80 ng/mL	1.47	1.10 ng/mL and 1.45 ng/mL and 1.28 ng/mL and 1.26 ng/mL and 1.19 ng/mL	1.11	1.16 ng/mL and 0.826 ng/mL and 1.35 ng/mL	122	48	Tmax ([1]; RccHan:WIST, rat, plasma, inhaled or intranasal, male rats, single 2 hr inhalation, nominal dose 2.2 mg/kg, read-out: Tmax): 6 h; Cmax ([1]; male, RccHan:WIST, rat, plasma, inhaled or intranasal, 2.2 mg/kg, single 2 hr inhalation of nebulised aqueous suspension, nominal dose 2.2 mg/kg, read-out: Cmax (maximum mean plasma concentration)): 4.95 ng/mL; AUC(0-t) ([1]; male, RccHan:WIST, rat, plasma, inhaled or intranasal, 2.2 mg/kg, single 2 hr inhalation, nominal dose 2.2 mg/kg, 0-48 hr): 122 ng·h/mL; concentration at 3 h ([1]; male, RccHan:WIST, rat, plasma, inhaled, 2.2 mg/kg, inhalation, nominal 2.2 mg/kg, 3 hr, group mean, read-out: Drug Concentration Mean (plasma)): 4.02 ng/mL; concentration at 4 h ([1]; male, RccHan:WIST, rat, plasma, inhaled, 2.2 mg/kg, inhalation, nominal 2.2 mg/kg, 4 hr, group mean, read-out: Drug Concentration Mean (plasma)): 4.94 ng/mL; concentration at 6 h ([1]; male, RccHan:WIST, rat, plasma, inhaled, 2.2 mg/kg, inhalation, nominal 2.2 mg/kg, 6 hr, group mean, read-out: Drug Concentration Mean (plasma)): 4.95 ng/mL; concentration at 12 h ([1]; male, RccHan:WIST, rat, plasma, inhaled, 2.2 mg/kg, inhalation, nominal 2.2 mg/kg, 12 hr, group mean, read-out: Drug Concentration Mean (plasma)): 3.85 ng/mL; concentration at 24 h ([1]; male, RccHan:WIST, rat, plasma, inhaled, 2.2 mg/kg, inhalation, nominal 2.2 mg/kg, 24 hr, group mean, read-out: Drug Concentration Mean (plasma)): 2.85 ng/mL; concentration at 28 h ([1]; male, RccHan:WIST, rat, plasma, inhaled, 2.2 mg/kg, inhalation, nominal 2.2 mg/kg, 28 hr, group mean, read-out: Drug Concentration Mean (plasma)): 2.38 ng/mL; concentration at 48 h ([1]; male, RccHan:WIST, rat, plasma, inhaled, 2.2 mg/kg, inhalation, nominal 2.2 mg/kg, 48 hr, group mean, read-out: Drug Concentration Mean (plasma)): 1.26 ng/mL; temperature from which degradation was evident (TGA) ([2]; sample prepared from toluene): 320 °C
Cc1cc(N2CCN(c3ccc(C(=O)Nc4ccc(F)cc4)cc3)CC2)ccc1OC[C@@H]1CO[C@@](Cn2cncn2)(c2ccc(F)cc2F)C1 [Form 2, 4-(4-(4-(((3R,5R)-5-((1H-1,2,4-triazol-1-yl)methyl)-5-(2,4-difluorophenyl)tetrahydrofuran-3-yl)methoxy)-3-methylphenyl)piperazin-1-yl)-N-(4-fluorophenyl)benzamide]	8.95 ng/mL and 5.40 ng/mL and 6.01 ng/mL	7.53 ng/mL and 9.31 ng/mL and 8.88 ng/mL	11.8 ng/mL and 5.38 ng/mL	6.85 ng/mL and 5.90 ng/mL and 6.79 ng/mL	6.51	10.7 ng/mL and 4.57 ng/mL and 5.84 ng/mL	11.5 ng/mL	8.15 ng/mL and 3.17 ng/mL and 3.32 ng/mL and 4.15 ng/mL and 2.94 ng/mL and 2.93 ng/mL	7.72 ng/mL and 3.50 ng/mL and 3.33 ng/mL and 4.05 ng/mL and 2.75 ng/mL and 2.51 ng/mL	3.98	6.28 ng/mL and 2.43 ng/mL (2×) and 2.54 ng/mL and 3.59 ng/mL and 2.49 ng/mL	3.29	3.78 ng/mL and 1.79 ng/mL and 1.89 ng/mL and 2.52 ng/mL and 1.83 ng/mL and 1.91 ng/mL	2.66	2.24 ng/mL and 2.59 ng/mL and 3.15 ng/mL	202	48	dose normalised AUCt, fold higher than Form 1 ([1]; male rats, inhalation): 1.7 fold; Drug Concentration Mean (plasma) ([1]; male rats, inhalation, nominal 2.2 mg/kg, 3 hr, group mean): 6.79 ng/mL; Drug Concentration Mean (plasma) ([1]; male rats, inhalation, nominal 2.2 mg/kg, 4 hr, group mean): 8.57 ng/mL; Drug Concentration Mean (plasma) ([1]; male rats, inhalation, nominal 2.2 mg/kg, 6 hr, group mean): 8.59 ng/mL; Drug Concentration Mean (plasma) ([1]; male rats, inhalation, nominal 2.2 mg/kg, 12 hr, group mean): 7.04 ng/mL; Drug Concentration Mean (plasma) ([1]; male rats, inhalation, nominal 2.2 mg/kg, 28 hr, group mean): 4.11 ng/mL; Drug Concentration Mean (plasma) ([1]; male rats, inhalation, nominal 2.2 mg/kg, 48 hr, group mean): 2.29 ng/mL; Cmax (maximum mean plasma concentration) ([1]; male rats, single 2 hr inhalation of nebulised aqueous suspension, nominal dose 2.2 mg/kg, 2.2 mg/kg): 8.59 ng/mL; AUCt ([1]; male rats, single 2 hr inhalation, nominal dose 2.2 mg/kg, 0-48 hr, 2.2 mg/kg): 230 ng·h/mL; Tmax ([1]; male rats, single 2 hr inhalation, nominal dose 2.2 mg/kg): 6 h; temperature at which sample begun to degrade (TGA) ([2]; material isolated from MIBK): 320 °C; temperature at which degradation started (TGA) ([2]; sample derived from EtOH): 320 °C
